Patent publication US7872004B2, “6-(heterocyclyl-substituted benzyl)-4-oxoquinoline compound and use thereof as HIV integrase inhibitor” (Japan Tobacco Inc., priority 2006, dated 2011)

These compounds were tested against T1, HIV integrase (Human immunodeficiency virus type 1 group M subtype B, UniProt P12497, F1332H) (assay: Determination of enzyme (HIV integrase) inhibitory activity). Settings: recombinant integrase protein (F185H), strand transfer plate assay, absorbance at 450 nm.
T1 construct: HIV integrase full length gene; made in house; host or cells: Escherichia coli BL21(DE3)
Assay type: biochemical, HIV (Human Immunodeficiency Virus (type 1))
`CCc1cc2c(cc1Cc1cc(N3CCCC3=O)cc(Cl)c1F)c(=O)c(C(=O)O)cn2[C@H](CO)[C@@H](C)OC` [Example 41, 6-[3-chloro-2-fluoro-5-(2-oxopyrrolidin-1-yl)benzyl]-7-ethyl-1-((1R,2R)-1-hydroxymethyl-2-methoxypropyl)-4-oxo-1,4-dihydroquinoline-3-carboxylic acid] was tested, and the IC50 was 10 to 100 nM.
With `CC(C)(C)[C@@H](CO)n1cc(C(=O)O)c(=O)c2cc(Cc3cc(N4CCOCC4)c(F)c(Cl)c3F)ccc21` [Example 56, 6-[3-chloro-2,4-difluoro-5-(morpholin-4-yl)benzyl]-1-((S)-1-hydroxymethyl-2,2-dimethylpropyl)-4-oxo-1,4-dihydroquinoline-3-carboxylic acid] the IC50 was < 10 nM.
With `COc1cc2c(cc1Cc1cc(N3CCCC3=O)c(F)c(Cl)c1F)c(=O)c(C(=O)O)cn2[C@H](CO)C(C)(C)C` [Example 46, 6-[3-chloro-2,4-difluoro-5-(2-oxopyrrolidin-1-yl)benzyl]-1-((S)-1-hydroxymethyl-2,2-dimethylpropyl)-7-methoxy-4-oxo-1,4-dihydroquinoline-3-carboxylic acid] the IC50 was < 10 nM.
Compound `CCc1cc2c(cc1Cc1cc(N3CCCC3=O)cc(Cl)c1F)c(=O)c(C(=O)O)cn2[C@H](CO)C(C)C` [Example 24, 6-[3-chloro-2-fluoro-5-(2-oxopyrrolidin-1-yl)benzyl]-7-ethyl-1-((S)-1-hydroxymethyl-2-methylpropyl)-4-oxo-1,4-dihydroquinoline-3-carboxylic acid] has an IC50 of 10 to 100 nM.
`CCO[C@H](C)[C@@H](CO)n1cc(C(=O)O)c(=O)c2cc(Cc3cc(N4CCOCC4)cc(Cl)c3F)c(OC)cc21` [Example 50, 6-[3-chloro-2-fluoro-5-(morpholin-4-yl)benzyl]-1-[(1R,2R)-2-ethoxy-1-(hydroxymethyl)propyl]-7-methoxy-4-oxo-1,4-dihydroquinoline-3-carboxylic acid] gave an IC50 of 10 to 100 nM.
In the case of `CCO[C@H](C)[C@@H](CO)n1cc(C(=O)O)c(=O)c2cc(Cc3cc(N4CCOCC4)cc(Cl)c3F)c(CC)cc21` [Example 38, 6-[3-chloro-2-fluoro-5-(morpholin-4-yl)benzyl]-1-[(1R,2R)-2-ethoxy-1-(hydroxymethyl)propyl]-7-ethyl-4-oxo-1,4-dihydroquinoline-3-carboxylic acid], the IC50 is reported as < 10 nM.
